Source: ChEMBL document CHEMBL1158260, “Six lignans from Phyllanthus myrtifolius” (J Nat Prod, 1996)
The source made the active and inactive calls. The calls are words filed in the database; no cut-off is given here.

Columns and labels:
[1] = target: Human immunodeficiency virus type 1 reverse transcriptase (Human immunodeficiency virus 1, UniProt Q72547); experiment: (§1) Inhibition of HIV1 reverse transcriptase
[2] = Inhibition of human DNA polymerase alpha
[3] = target: Human immunodeficiency virus type 1 reverse transcriptase (Human immunodeficiency virus 1) (UniProt Q72547); experiment: as §1
[4] = target: Human immunodeficiency virus type 1 reverse transcriptase (Human immunodeficiency virus 1) (UniProt Q72547); experiment: Inhibition of HIV1 reverse transcriptase at 10 uM
[5] = target: Human immunodeficiency virus type 1 reverse transcriptase (Human immunodeficiency virus 1) (UniProt Q72547); experiment: Increase in HIV1 reverse transcriptase activity at 18.9 uM relative to control
[6] = target: Human immunodeficiency virus type 1 reverse transcriptase (Human immunodeficiency virus 1) (UniProt Q72547); experiment: Increase in HIV1 reverse transcriptase activity at 1.89 uM

| Activity [3] | Compound | IC50 [1] | IC50 [2] | further results |
| --- | --- | --- | --- | --- |
| – | COCc1cc2cc(OC)c(OC)cc2c(-c2ccc3c(c2)OCO3)c1C=O [PHYLLAMYRICIN B] | 3.5 µM | 289 µM | – |
| inactive | COc1cc2c(O[C@@H]3O[C@H](CO)[C@@H](O)[C@H](O)[C@H]3O)c(CO)c(CO)c(-c3ccc4c(c3)OCO4)c2cc1OC | – | – | – |
| – | COc1cc2cc3c(c(-c4ccc5c(c4)OCO5)c2cc1OC)COC3=O [RETROJUSTICIDIN B] | 5.5 µM | 989 µM | – |
| – | COc1cc2cc3c(c(-c4ccc5c(c4)OCO5)c2cc1OC)C(=O)OC3OC (centres undefined) | – | – | inhibition [4]: 20% |
| inactive | COc1cc(-c2c(C)c(CO)c(O[C@@H]3O[C@H](CO)[C@@H](O)[C@H](O)[C@H]3O)c3cc(OC)c(OC)cc23)ccc1O | – | – | – |
| – | COc1cc2c(O[C@@H]3O[C@H](CO)[C@@H](O)[C@H](O)[C@H]3O)c(CO)c(C)c(-c3ccc4c(c3)OCO4)c2cc1OC | – | – | Activity [5]: 65%; Activity [6]: 210% |
